Data set [1] concerns the target pseudo-kinase domain (JH2) of human V617F mutant JAK2 (Homo sapiens (Human), UniProt O60674, F794H/V617F/W659A/W777A). The data set is described as follows: JAK2 LanthaScreen JH2-V617F Binding Assay. To be noted: read-out: JH2 V617F Bind IC50. Here is the method:
JAK2 JH2-V617F binding assay utilizes pseudo-kinase domain (JH2, amino-acids 536-812 with 3 surface mutations W659A, W777A, F794H) of human V617F mutant JAK2 expressed as C-terminal His-Avi-tagged, biotinylated protein in a baculovirus expression system (BPS Bioscience, Catalog #79498). The assay was conducted in black 384-well polystyrene plates in a final reaction volume of 20 μL. JAK2 JH2-V617F (0.26 nM) was incubated with compounds (100 nL serially diluted in DMSO) in the presence of 50 nM Fluorescent JAK2-JH2 Tracer (MedChem Express Catalog #HY-102055) and 0.25 nM Streptavidin-Tb cryptate (Cisbio Part #610SATLB) in assay buffer (50 mM Tris, pH=7.5, 10 mM MgCl2, 0.01% Brij-35, 0.1% BSA, 1 mM EGTA, 5% Glycerol and 5 mM DTT). Non-specific binding was accessed in the presence of 2 mM ATP. After incubation for 1 hour at 25° C., LanthaScreen signals were read on a PHERAstar FS plate reader (BMG LABTECH). Data was analyzed with IDBS XLfit and GraphPad Prism 5.0 software using a four parameter dose response curve to determine IC50 for each compound.
On the technique in general: TR-FRET usually uses a lanthanide donor and a delayed reading to cut background.

The nature of the next data set: FaSSIF Solubility Assay. Format: physicochemical. The settings on record: FaSSIF (fasted state simulated intestinal fluid), 25 °C, pH 6.5, fassif, thermodynamic from solid, FaSSIF pH=6.5, 25° C. The source says:
The FaSSIF (Fasted State Simulated Intestinal Fluid) solubility assay can predict how an oral drug is likely to be dissolved and potentially absorbed in the upper intestine after drinking a glass of water. FaSSIF solubility assay utilizes biorelevant intestinal media (Biorelevant, Part #FFF01) comprised of physiological surfactants, bile salts, and phospholipids that are present in the gastrointestinal fluids it mimics. FaSSIF (pH=6.5) has the average pH of a fasted intestinal fluid with similar osmolarity. The FaSSIF buffer was prepared by adding 20 mL of phosphate buffer to FaSSIF Powder. The buffer was then added to the dry compound of interest at a concentration of 1 mg/mL and then incubated at 25° C. for 24 hours in a Rototherm Plus (Part #H2024). After incubation, the Eppendorf tubes were centrifuged and run on an Agilent 1260 LC-MS. The LC-MS method is a 5 min gradient method of 2% to 95% acetonitrile with water (0.05% TFA) using a Sunfire C18, 5 um 2.1×50 mm (Part #186002539) column. A dry reference compound of interest was diluted to a known 1 mg/mL concentration in 1:1 of water and acetonitrile. Step-wise serial dilutions were performed and run on an Agilent 1260 LC-MS using the same conditions to make a standard curve. The area under the curve is reported for the compound of interest in FaSSIF buffer and the reference standards. Calculations were performed and the predicted solubility, μg/mL, was reported for compounds of the examples.

Data set [2] concerns the target FLT3 (Homo sapiens (Human), UniProt P36888). The data set is described as follows: FLT3 Enzymatic Assay. Format: biochemical. To be noted: 1 mM ATP. Here is the method:
(§1) The kinase assays were carried out at room temperature in assay buffer (HEPES 50 mM, pH 7.0, NaN3 0.02%, BSA 0.01%, Orthovanadate 0.1 mM, DTT 1 mM, MgCl2 10 mM) in a final volume of 10 μL. Testing compounds were prepared by serial dilution in DMSO and transferred to the plate wells by ECHO liquid handler (Labcyte) with 0.5% DMSO in the final assay. […]. Reactions were initiated by the addition of 5 μL ATP in assay buffer. The final 10 μL kinase reaction consists of 0.011 nM FLT3, 1 mM ATP, 500 nM TK Substrate-biotin and SEB reagent 62.5 nM in assay buffer. […] The plates were then sealed and centrifuged at 1800 rpm for 2 minutes. After 60 minutes incubation at room temperature, the product activity was determined by measuring the fluorescence at 620 nm and 665 nm on Pherastar microplate reader (BMG Labtech). A ratio is calculated (665/620 nm) for each well. Wells with DMSO only were served as the positive controls and wells containing no ATP were used as negative controls. IC50 determination was performed by fitting the curve of percent control activity versus the log of the compound concentration using the GraphPad Prism 7.0 software.

Data set [3] concerns FLT3. The data set is described as follows: FLT3 Enzymatic Assay. The class given is biochemical. The method, then: as §1
Data set [4] addresses TRKA (Homo sapiens (Human), UniProt P04629). The data set is described as follows: TRKA Enzymatic Assay. The settings on record: 1 mM ATP. Format: biochemical. Here is the method:
(§2) The kinase assays were carried out at 24° C. temperature in assay buffer (HEPES 50 mM, pH 7.0, NaN3 0.02%, BSA 0.01%, Orthovanadate 0.1 mM, DTT 1 mM, MgCl2 10 mM) in a final volume of 10 μL. Testing compounds were prepared by serial dilution in DMSO and transferred to the plate wells by ECHO liquid handler (Labcyte) with 0.5% DMSO in the final assay. […]. Reactions were initiated by the addition of 5 μL ATP in assay buffer. The final 10 μL kinase reaction consisted of 0.58 nM TRKA, 1 mM ATP, 500 nM TK Substrate-biotin and SEB reagent 62.5 nM in assay buffer. […] After 60 minutes incubation at room temperature, the product activity was determined by measuring the fluorescence at 620 nm and 665 nm on Pherastar microplate reader (BMG Labtech). A ratio was calculated (665/620 nm) for each well. Wells with DMSO only served as the positive controls and wells containing no ATP were used as negative controls. IC50 determination was performed by fitting the curve of percent control activity versus the log of the compound concentration using the Gene data.

In data set [5] the test system is TRKA. In words: TRKA Enzymatic Assay. The class given is biochemical. The method, then:
as §2

For data set [6], the system named is STAT5 (Tyr694) phosphorylation in SET-2 cells. The data set is described as follows: STAT5 (Tyr694) Phosphorylation Cell Based Assay. To be noted: Homo sapiens, 2 hours, read-out: SET2 IC50. The method, then:
SET-2 cells was purchased from DSMZ (Germany). RPMI1640 medium, Fetal Bovine Serum and 384-white sold flat-bottom small volume plate were purchased from Thermo Fisher Scientific (Waltham, MA). Phospho-STAT5 (Tyr694) HTRF kit was purchased from Perkin Elmer (Waltham, MA).
SET-2 cells were cultured in RPMI media with 20% FBS at 37° C. in humidified incubator supplied with 5% CO2. On the day of assay, the cells were centrifuged to remove the culture media and resuspended with prewarmed RPMI with 10% FBS. Testing compounds were prepared by serial dilution in DMSO and 50 nL/well test compounds were transferred to the 384 white low volume cell culture plate (Greiner Bio-one) by ECHO liquid handler (Labcyte). The cells were then dispensed with Multidrop (Thermo Fisher, Waltham, MA) at 10 μL/well (7×10^6 cells/mL) with 0.5% DMSO in the final assay. After the treated cells were incubated for 2 hours at 37° C./5% CO2 incubator, 4 μL/well supplemented lysis buffer (100× blocking buffer diluted 25 fold in 4× lysis buffer, Perkin Elmer) were added and incubated at room temperature for 90 min on orbital shaker at 600 rpm. Phospho-STAT5 Cryptate antibody and Phospho-STAT5 d2 antibody (1:1 vol/vol) were premixed and diluted 20 fold with in the detection buffer (Perkin Elmer). 4 μL of the premixed antibody solution were added to each well followed with 24 hours incubation at room temperature on orbital shaker at 600 rpm. The product activity was determined by measuring the fluorescence at 620 nm and 665 nm on Pherastar microplate reader (BMG Labtech). A ratio is calculated (665/620) for each well. Wells with DMSO only served as the positive controls and wells containing high concentration of control compound were used as negative controls. IC50 determination was performed by fitting the curve of percent control activity versus the log of the compound concentration using the GraphPad Prism 7.0 software.

Data set [7] has as its target catalytic domain (JH1) of human JAK2 (Homo sapiens (Human), UniProt O60674). The data set is described as follows: JAK2 LanthaScreen JH1 Binding Assay. To be noted: read-out: JH1 Bind IC50. The method, then: JAK2 JH1 binding assay utilizes catalytic domain (JH1, amino acids 826-1132) of human JAK2 expressed as N-terminal FLAG-tagged, biotinylated protein in a baculovirus expression system (Carna Biosciences, Product #08-445-20N). The assay was conducted in black 384-well polystyrene plates in a final reaction volume of 20 μL. JAK2 JH1 (1.5 nM) was incubated with compounds (100 nL serially diluted in DMSO) in the presence of 50 nM fluorescent JAK2-JH1 tracer and 0.5 nM Streptavidin-Tb cryptate (Cisbio Part #610SATLB) in assay buffer (50 mM Tris, pH=7.5, 10 mM MgCl2, 0.01% Brij-35, 0.1% BSA, 1 mM EGTA, 5% Glycerol and 5 mM DTT). Non-specific binding was accessed in the presence of 2 mM ATP. After incubation for 2 hours at 25° C., LanthaScreen signals were read on a PHERAstar FS plate reader (BMG LABTECH). Data was analyzed with IDBS XLfit and GraphPad Prism 5.0 software using a four parameter dose response curve to determine IC50 for each compound.

Each structure is given as a SMILES string. Where two headings read alike, the source gives them in different places.

Consider three compounds from patent US20250092044A1, “Kinase Inhibitors” (Incyte Corporation, priority 2023, published 2025).

Chain of pseudo-kinase domain (JH2) of human V617F mutant JAK2 (O60674 536-812 V617F/W659A/W777A/F794H): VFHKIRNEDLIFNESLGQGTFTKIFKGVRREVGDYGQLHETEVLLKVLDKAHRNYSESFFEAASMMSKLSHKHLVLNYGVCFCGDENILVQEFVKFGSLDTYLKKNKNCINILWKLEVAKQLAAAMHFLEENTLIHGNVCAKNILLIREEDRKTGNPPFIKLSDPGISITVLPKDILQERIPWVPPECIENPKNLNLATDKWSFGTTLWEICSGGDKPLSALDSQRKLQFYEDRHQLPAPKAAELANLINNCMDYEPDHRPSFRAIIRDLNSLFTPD
Chain of FLT3 (Homo sapiens (Human), UniProt P36888) (P36888 27-993, species assumed): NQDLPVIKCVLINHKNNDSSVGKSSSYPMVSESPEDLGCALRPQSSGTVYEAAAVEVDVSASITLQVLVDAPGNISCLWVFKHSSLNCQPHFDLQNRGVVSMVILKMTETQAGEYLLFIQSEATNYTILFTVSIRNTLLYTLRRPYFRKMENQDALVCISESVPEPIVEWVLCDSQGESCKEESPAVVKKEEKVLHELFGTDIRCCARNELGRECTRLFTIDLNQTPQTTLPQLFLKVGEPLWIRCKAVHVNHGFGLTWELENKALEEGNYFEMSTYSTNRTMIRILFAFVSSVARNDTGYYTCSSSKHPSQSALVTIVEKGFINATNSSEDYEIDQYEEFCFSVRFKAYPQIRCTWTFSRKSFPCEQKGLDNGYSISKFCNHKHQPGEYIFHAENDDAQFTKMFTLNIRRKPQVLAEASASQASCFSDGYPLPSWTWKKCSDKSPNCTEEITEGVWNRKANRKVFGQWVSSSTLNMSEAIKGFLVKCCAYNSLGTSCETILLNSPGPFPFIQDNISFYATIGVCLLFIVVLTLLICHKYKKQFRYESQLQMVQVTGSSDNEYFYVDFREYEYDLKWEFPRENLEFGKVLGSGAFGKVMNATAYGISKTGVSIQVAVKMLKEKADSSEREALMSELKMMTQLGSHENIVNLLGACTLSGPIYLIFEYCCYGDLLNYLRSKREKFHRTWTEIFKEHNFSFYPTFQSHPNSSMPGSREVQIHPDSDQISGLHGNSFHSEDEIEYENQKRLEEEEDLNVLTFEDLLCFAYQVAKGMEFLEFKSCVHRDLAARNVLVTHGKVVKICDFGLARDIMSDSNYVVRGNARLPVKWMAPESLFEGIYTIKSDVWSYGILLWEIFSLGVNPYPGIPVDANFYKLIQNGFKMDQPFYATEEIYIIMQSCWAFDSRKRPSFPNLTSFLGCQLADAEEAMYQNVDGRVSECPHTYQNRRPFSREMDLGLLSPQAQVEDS
Chain of TRKA (Homo sapiens (Human), UniProt P04629) (P04629 33-796, species assumed): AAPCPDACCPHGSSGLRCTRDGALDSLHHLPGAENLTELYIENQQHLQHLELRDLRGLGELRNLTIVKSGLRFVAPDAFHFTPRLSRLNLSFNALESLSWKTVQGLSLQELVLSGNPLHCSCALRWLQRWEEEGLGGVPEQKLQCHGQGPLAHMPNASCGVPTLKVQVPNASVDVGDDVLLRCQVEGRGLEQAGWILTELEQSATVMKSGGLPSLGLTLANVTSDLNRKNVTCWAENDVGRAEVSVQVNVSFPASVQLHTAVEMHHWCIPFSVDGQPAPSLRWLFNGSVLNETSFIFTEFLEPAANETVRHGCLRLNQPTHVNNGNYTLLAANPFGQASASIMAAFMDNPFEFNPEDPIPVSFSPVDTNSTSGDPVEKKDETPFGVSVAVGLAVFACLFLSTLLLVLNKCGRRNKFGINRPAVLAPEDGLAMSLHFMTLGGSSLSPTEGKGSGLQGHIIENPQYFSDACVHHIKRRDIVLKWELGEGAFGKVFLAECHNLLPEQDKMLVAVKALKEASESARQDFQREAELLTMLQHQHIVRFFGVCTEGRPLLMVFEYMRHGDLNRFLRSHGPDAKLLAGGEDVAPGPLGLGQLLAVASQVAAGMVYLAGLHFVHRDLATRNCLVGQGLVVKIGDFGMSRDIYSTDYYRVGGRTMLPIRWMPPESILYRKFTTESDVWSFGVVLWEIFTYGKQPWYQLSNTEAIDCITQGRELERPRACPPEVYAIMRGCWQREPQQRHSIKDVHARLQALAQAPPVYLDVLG
Chain of catalytic domain (JH1) of human JAK2 (O60674 826-1132): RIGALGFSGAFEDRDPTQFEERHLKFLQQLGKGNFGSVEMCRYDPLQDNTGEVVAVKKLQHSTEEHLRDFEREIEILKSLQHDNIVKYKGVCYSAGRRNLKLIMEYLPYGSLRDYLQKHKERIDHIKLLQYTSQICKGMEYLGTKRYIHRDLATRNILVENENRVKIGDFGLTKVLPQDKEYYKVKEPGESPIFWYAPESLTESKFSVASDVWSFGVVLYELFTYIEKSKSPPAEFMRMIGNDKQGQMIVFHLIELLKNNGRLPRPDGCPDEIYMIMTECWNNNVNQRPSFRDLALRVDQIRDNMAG

For the compound `COc1ccc(-c2c(-c3cnn(Cc4ccncc4)c3)[nH]c3ncc4c(c23)n(C2CCCC2)c(=O)n4C)cc1` [Comparative Example D, reference compound], the IC50 in data set [1] was at most 0.01 µM. Further, in “FaSSIF Solubility Assay” (read-out: FaSSIF solubility), the solubility at 24 h was below 0.02 mg/mL.
Consider `CN(C)C(=O)c1ccc(-c2[nH]c3ncc4c(c3c2-c2ccc3c(cnn3C)c2)n(C2CCCC2)c(=O)n4C)cc1` [Comparative Example F, reference compound], for which the IC50 in data set [1] is at most 0.01 µM; on FLT3 [2] it was 0.025 to 0.25 µM; against TRKA [4], 0.025 to 0.25 µM; in data set [6], 0.3 to 0.8 µM. For the same compound, the “Selectivity FLT3/JH2 V617F” value in the data set on FLT3 [3] is given as “* (selectivity of ≤500-fold)”. For the same compound, the “Selectivity TRKA/JH2 V617F” value with TRKA [5] was “* (selectivity of ≤500-fold)”. Moreover, the solubility at 24 h in “FaSSIF Solubility Assay” (read-out: FaSSIF solubility) is below 0.02 mg/mL; in “FaSSIF Solubility Assay” (read-out: Solubility Fassif), at most 0.05 mg/mL.
With `COC(=O)N[C@@H]1CC[C@@H](n2c(=O)n(C)c3cnc4[nH]c(-c5ccc(C(=O)N(C)C)cc5)c(-c5ccc6c(cnn6C(C)C)c5)c4c32)C1` [Example 22, Methyl ((1R,3R)-3-(7-(4-(dimethylcarbamoyl)phenyl)-8-(1-isopropyl-1H-indazol-5-yl)-3-methyl-2-oxo-3,6-dihydroimidazo[4,5-d]pyrrolo[2,3-b]pyridin-1(2H)-yl)cyclopentyl)carbamate], the IC50 in data set [1] was at most 0.01 µM; in data set [7], above 1 µM; at FLT3 [2], 0.25 to 1.25 µM; at TRKA [4] it was 0.25 to 1.25 µM; in data set [6], at most 0.3 µM. Also, the “Selectivity FLT3/JH2 V617F” value with FLT3 [3] is listed as “***** (selectivity of >5000-fold to ≤12500-fold)”. For the same compound, in the data set with TRKA [5], the “Selectivity TRKA/JH2 V617F” value is on record as “***** (selectivity of >5000-fold to ≤12500-fold)”.

For orientation: IC50 means the concentration needed to halve the response being measured. Usually solubility stands for how much of the substance goes into solution per volume.
